Results: patent publication US20160046592A1, “PHARMACEUTICAL COMPOSITION FOR THE TREATMENT OF DIABETES” (Ajinomoto Co., Inc., priority 2013, published 2016)
Where a name gives a salt, the structure may show the parent alone.

target: T1, human GYS1 (glycogen synthase) (Homo sapiens, UniProt P13807); experiment: Measurement of glycogen synthase activity; type: biochemical; conditions: concentration causing 50% increase in relative activity; 100% = compound of Example 1 of WO/2011/058154 at 10 μM; 10 mM Glucose-6-phosphate; 37° C. for 25 minutes (Examples 1 to 61 and 67 to 82) or 20 minutes (Examples 62 to 66); absorbance at 340 nm
T1 construct: made in house; host or cells: HEK293T
T1 sequence (P13807 1-737): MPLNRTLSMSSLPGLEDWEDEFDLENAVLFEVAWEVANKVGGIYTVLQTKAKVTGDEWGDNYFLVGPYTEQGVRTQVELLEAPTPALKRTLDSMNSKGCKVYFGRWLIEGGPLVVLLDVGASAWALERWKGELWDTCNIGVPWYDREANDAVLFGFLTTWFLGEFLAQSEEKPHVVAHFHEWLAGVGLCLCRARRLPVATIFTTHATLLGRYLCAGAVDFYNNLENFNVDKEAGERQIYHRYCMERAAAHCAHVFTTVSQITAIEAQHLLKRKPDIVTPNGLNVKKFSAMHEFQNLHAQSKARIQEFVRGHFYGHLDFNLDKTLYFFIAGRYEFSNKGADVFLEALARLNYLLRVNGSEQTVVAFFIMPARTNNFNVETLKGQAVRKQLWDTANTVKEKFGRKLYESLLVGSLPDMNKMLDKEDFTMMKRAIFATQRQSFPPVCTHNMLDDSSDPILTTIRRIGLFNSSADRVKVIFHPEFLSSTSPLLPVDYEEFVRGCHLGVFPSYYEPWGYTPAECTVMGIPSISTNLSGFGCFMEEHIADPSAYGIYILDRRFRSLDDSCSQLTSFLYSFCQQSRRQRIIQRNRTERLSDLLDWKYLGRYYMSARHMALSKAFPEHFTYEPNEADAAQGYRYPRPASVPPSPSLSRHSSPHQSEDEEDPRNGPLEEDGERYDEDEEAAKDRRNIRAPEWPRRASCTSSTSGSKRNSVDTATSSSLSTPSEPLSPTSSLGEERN
Description: A human GYS1 expression plasmid (pCDNA3.1(+)-hGYS1) was constructed by the following method. By using a human skeletal muscle cDNA of Human MTC Panel I (Takara Bio Inc., 636742) as a template, a human GYS1 gene was amplified by a PCR method using cloning primers (Forward Primer: ATGCCTTTAAACCGCAC, Reverse Primer: TTAGTTACGCTCCTCGC). By using the amplified human GYS1 sequence as a template, restriction enzyme sequences were added by a PCR method using sub-cloning primers (Forward Primer: […], and Reverse Primer: […]), and then the human GYS1 gene was introduced between Xho I and Xba I sites of pCDNA3.1(+) (Invitrogen, V790-20).
Glycogen synthase was prepared by the following method. Human kidney-derived HEK293T cells were seeded in a dish (Thermo Fisher Scientific K.K., 168381) by using a 10% FBS-containing DMEM (Nacalai Tesque, Inc., 0845874) medium, and cultured overnight. Then, by using Lipofectamine LTX (Invitrogen, 15338-100), the cells were transfected with the human GYS1 expression vector according to the attached manual. After culturing under conditions of 37° C. and 5% CO2 for 2 days, the resultant was lysed in a lysis buffer (50 mM Tris-HCl (pH 8.0), 10 mM EDTA, 2 mM EGTA, 100 mM NaF, 1 mM PMSF, 1 mM DTT, and 1× Complete (Roche, 1873580)), homogenized, and then centrifuged at 16000×g at 4° C. for 15 minutes. The precipitated fraction re-dissolved by adding the lysis buffer was used as a glycogen synthase for evaluation.
The glycogen synthase activity was measured by the following method. To a polystyrene 96-well plate, solutions each containing 30 mM glycylglycine (pH 7.3), 40 mM KCl, 20 mM MgCl2, 9.2% DMSO containing one of the test compounds at one of various concentrations, and 10 mM Glucose-6-phosphate (Sigma-Aldrich, G7879) were added at 12 μL/well.
Next, a substrate solution containing 30 mM glycylglycine (pH 7.3), 4.3 mg/mL glycogen (Sigma-Aldrich, G8876), 21.6 mM UDP-glucose (Sigma-Aldrich, U4625), 21.6 mM phosphoenolpyruvic acid (Sigma-Aldrich, P0564), and 4.05 mM NADH (Sigma-Aldrich, N8129) was added at 18 μL/well.
Moreover, an enzyme solution containing 50 mM Tris-HCl (pH 8.0), 27 mM DTT (NACALAI TESQUE, INC., 14128-04), 0.2 mg/mL bovine serum albumin, 0.17 mg/mL glycogen synthase, and 1.5 μL pyruvate kinase/lactate dehydrogenase solution (Sigma-Aldrich, P0294) was added at 18 μL/well to prepare reaction solutions. After the reaction solutions were incubated (at 37° C. for 25 minutes for Examples 1 to 61 and 67 to 82 or at 37° C. for 20 minutes for Examples 62 to 66), the absorbance at 340 nm was measured by using Benchmark Plus (Bio-Rad Laboratories, Inc.).
The activity of each test compound was calculated by the following method. The absorbance at 340 nm of the reaction solution containing the compound and DMSO was subtracted from the absorbance at 340 nm of a reaction solution not containing the compound but containing only DMSO to calculate the change (ΔA340) in absorbance. The relative activity (%) of the test compound at each of the various concentrations was calculated, where the ΔA340 of a reaction solution containing the compound of Example 1 of WO/2011/058154 at a final concentration of 10 μM was taken as 100%. EC50 representing the concentration of the compound at which an increase in the relative activity by 50% was caused was calculated using XLfit (idbs).

| SMILES | EC50 [nM] |
| --- | --- |
| CSc1cc(F)c(F)cc1-c1ccc(OCc2cccc(C(=O)N3C(C(N)=O)CC[C@H]3C(=O)O)c2)cc1 (single isomer, unassigned) [Example 58, (2S,5S) or (2S,5R)-5-Carbamoyl-1-[3-[[4-(4,5-difluoro-2-methylsulfanyl-phenyl)phenoxy]methyl]benzoyl]pyrrolidine-2-carboxylic Acid] | 7.3 |
| CSc1cc(F)c(F)cc1-c1ccc(OCc2cccc(C(=O)N(CC(=O)O)Cc3ccccn3)c2)cc1 [Example 20, 2-[[3-[[4-(4,5-Difluoro-2-methylsulfanyl-phenyl)phenoxy]methyl]benzoyl]-(2-pyridylmethyl)amino]acetic Acid Trifluoroacetate] | 6.5 |
| CSc1cc(F)c(F)cc1-c1ccc(OCc2cccc(C(=O)N(CC(=O)O)CC3CCOCC3)c2)cc1 [Example 34, 2-[[3-[[4-(4,5-Difluoro-2-methylsulfanyl-phenyl)phenoxy]methyl]benzoyl]-(tetrahydropyran-4-ylmethyl)amino]acetic Acid] | 24 |
| CS(=O)(=O)NCCN(CC(=O)O)C(=O)c1cccc(COc2ccc(-c3cc(F)c(F)c4ccoc34)cc2)c1 [Example 16, 2-[[3-[[4-(4,5-Difluorobenzofuran-7-yl)phenoxy]methyl]benzoyl]-[2-(methanesulfonamido)ethyl]amino]acetic Acid] | 16 |
| CSc1cc(F)c(F)cc1-c1ccc(OCc2cccc(C(=O)N(CC(=O)O)CC3CCS(=O)(=O)C3)c2)cc1 (stereo not shown) [Example 46, 2-[[3-[[4-(4,5-Difluoro-2-methylsulfanyl-phenyl)phenoxy]methyl]benzoyl]-[(1,1-dioxothiolan-3-yl)methyl]amino]acetic Acid] | 25 |
| CSc1cc(F)c(F)cc1-c1ccc(OCc2cccc(C(=O)N(CC(=O)O)Cc3ccncn3)c2)cc1 [Example 53, 2-[[3-[[4-(4,5-Difluoro-2-methylsulfanyl-phenyl)phenoxy]methyl]benzoyl]-(pyrimidin-4-ylmethyl)amino]acetic Acid] | 7.9 |
| CNS(=O)(=O)CCN(CC(=O)O)C(=O)c1cccc(COc2ccc(-c3cc(F)c(F)cc3SC)cc2)c1 [Example 56, 2-[[3-[[4-(4,5-Difluoro-2-methylsulfanyl-phenyl)phenoxy]methyl]benzoyl]-[2-(methylsulfamoyl)ethyl]amino]acetic Acid] | < 3 |
| CSc1cc(F)c(F)cc1-c1ccc(OCc2cccc(C(=O)N(CCNS(C)(=O)=O)CC(=O)O)c2)cc1 [Example 17, 2-[[3-[[4-(4,5-Difluoro-2-methylsulfanyl-phenyl)phenoxy]methyl]benzoyl]-[2-(methanesulfonamido)ethyl]amino]acetic Acid] | 10 |
| CSc1cc(F)c(F)cc1-c1ccc(OCc2cccc(C(=O)N(CCS(C)(=O)=O)CC(=O)O)c2)cc1 [Example 31, 2-[[3-[[4-(4,5-Difluoro-2-methylsulfanyl-phenyl)phenoxy]methyl]benzoyl]-(2-methylsulfonylethyl)amino]acetic Acid] | 18 |
| CSc1cc(F)c(F)cc1-c1ccc(OCc2cccc(C(=O)N(CC(=O)O)CC(=O)O)c2)cc1 [Example 27, 2-[Carboxymethyl-[3-[[4-(4,5-difluoro-2-methylsulfanyl-phenyl)phenoxy]methyl]benzoyl]amino]acetic Acid] | 10 |

Next, values leading:

| EC50 [nM] | SMILES |
| --- | --- |
| 10 | CN(C)C(=O)CN(CC(=O)O)C(=O)c1cccc(COc2ccc(-c3cc(F)c(F)c4ccoc34)cc2)c1 [Example 11, 2-[[3-[[4-(4,5-Difluorobenzofuran-7-yl)phenoxy]methyl]benzoyl]-[2-(dimethylamino)-2-oxo-ethyl]amino]acetic Acid] |
| 21 | COC1CCN(C(=O)c2cccc(COc3ccc(-c4cc(F)c(F)cc4SC)cc3)c2)C1C(=O)O (stereo in doubt) [Example 33, (2S,3S)-1-[3-[[4-(4,5-Difluoro-2-methylsulfanyl-phenyl)phenoxy]methyl]benzoyl]-3-methoxy-pyrrolidine-2-carboxylic Acid] |
| 19 | CSc1cc(F)c(F)cc1-c1ccc(OCc2cccc(C(=O)N3C[C@H](O)C[C@H]3C(=O)O)c2)cc1 [Example 29, (2S,4R)-1-[3-[[4-(4,5-Difluoro-2-methylsulfanyl-phenyl)phenoxy]methyl]benzoyl]-4-hydroxy-pyrrolidine-2-carboxylic Acid] |
| 15 | CSc1cc(F)c(F)cc1-c1ccc(OCc2cccc(C(=O)N(CC(=O)O)Cc3ccon3)c2)cc1 [Example 66, 2-[[3-[[4-(4,5-Difluoro-2-methylsulfanyl-phenyl)phenoxy]methyl]benzoyl]-(isoxazol-3-ylmethyl)amino]acetic Acid] |
| 10 | CSc1cc(F)c(F)cc1-c1ccc(OCc2cccc(C(=O)N3C(C(N)=O)CC[C@H]3C(=O)O)c2)cc1 (single isomer, unassigned) [Example 57, (2S,5R) or (2S,5S)-5-Carbamoyl-1-[3-[[4-(4,5-difluoro-2-methylsulfanyl-phenyl)phenoxy]methyl]benzoyl]pyrrolidine-2-carboxylic Acid] |
| 20 | CC(=O)N1CCC(CN(CC(=O)O)C(=O)c2cccc(COc3ccc(-c4cc(F)c(F)c5ccoc45)cc3)c2)CC1 [Example 81, 2-[(1-Acetyl-4-piperidyl)methyl-[3-[[4-(4,5-difluorobenzofuran-7-yl)phenoxy]methyl]benzoyl]amino]acetic Acid] |
| 13 | NC(=O)CN(CC(=O)O)C(=O)c1cccc(COc2ccc(-c3cc(F)c(F)c4ccoc34)cc2)c1 [Example 1, 2-[(2-Amino-2-oxo-ethyl)-[3-[[4-(4,5-difluorobenzofuran-7-yl)phenoxy]methyl]benzoyl]amino]acetic Acid] |
| 20 | CS(=O)(=O)CCCN(CC(=O)O)C(=O)c1cccc(COc2ccc(-c3cc(F)c(F)c4ccoc34)cc2)c1 [Example 77, 2-[[3-[[4-(4,5-Difluorobenzofuran-7-yl)phenoxy]methyl]benzoyl]-(3-methylsulfonylpropyl)amino]acetic Acid] |
| 7.3 | CC(C)(O)CCN(CC(=O)O)C(=O)c1cccc(COc2ccc(-c3cc(F)c(F)c4ccoc34)cc2)c1 [Example 18, 2-[[3-[[4-(4,5-Difluorobenzofuran-7-yl)phenoxy]methyl]benzoyl]-(3-hydroxy-3-methyl-butyl)amino]acetic Acid] |
